Reference: US8729093B2 (priority 2006, dated 2014)
Like-named read-outs stand apart in the source and are kept apart here.

What was measured:
rice blast [1] = type: in vivo, Pyricularia oryzae
rice blast [2] = test: whole plant or invertebrate; type: in vivo; settings: Pyricularia oryzae, 504 h, read-out: prevention value
rice "Bakanae" disease = test: whole plant or invertebrate; type: in vivo; settings: Oryza sativa, 504 h, read-out: prevention value
[3] = rice (Sachikaze), nursery box soil treated at sowing time or transplanting time, 400 g a.i./10 a, observed 7 days after inoculation, untreated plants = 3

| Structure (SMILES) | disease severity (rice blast [1]; [3]) | pest or weed control at 0.02 % a.i. (rice blast [2]) | pest or weed control at 0.02 % a.i. (rice "Bakanae" disease) | disease severity (rice blast [1]; in vivo) |
| --- | --- | --- | --- | --- |
| CC1(C)Cc2c(F)cccc2C(c2cnc3ccccc3c2)=N1 [Compound No. 1-32, 3-(5-fluoro-3,3-dimethyl-3,4-dihydroisoquinolin-1-yl)quinoline] | 0 | ≥ 80% | ≥ 80% |  |
| CC1(C)Cc2c(Cl)cccc2C(c2cnc3ccccc3c2)=N1 [Compound No. 1-44, 3-(5-chloro-3,3-dimethyl-3,4-dihydroisoquinolin-1-yl)quinoline] | 0 |  |  |  |
| CC1(C)Cc2c(Br)cccc2C(c2cnc3ccccc3c2)=N1 [Compound No. 1-56, 3-(5-bromo-3,3-dimethyl-3,4-dihydroisoquinolin-1-yl)quinoline] | 0 |  |  |  |
| CC1(C)Cc2c(ccc(F)c2F)C(c2cnc3ccccc3c2)=N1 [Compound No. 1-117, 3-(5,6-difluoro-3,3-dimethyl-3,4-dihydroisoquinolin-1-yl)quinoline] | 0 |  |  |  |
| CCCC1(C)Cc2c(F)cccc2C(c2cnc3ccccc3c2)=N1 (stereo not shown) [Compound No. 1-185, 3-(5-fluoro-3-methyl-3-propyl-3,4-dihydroisoquinolin-1-yl)quinoline] | 0 |  |  |  |
| CC1(C(F)(F)F)Cc2ccccc2C(c2cnc3ccccc3c2)=N1 (stereo not shown) [Compound No. 1-387, 3-(3-methyl-3-trifluoromethyl-3,4-dihydroisoquinolin-1-yl)quinoline] | 0 |  |  |  |
| CC1(CC(F)(F)F)Cc2ccccc2C(c2cnc3ccccc3c2)=N1 (stereo not shown) [Compound No. 1-425, 3-[3-methyl-3-(2,2,2-trifluoroethyl)-3,4-dihydroisoquinolin-1-yl]quinoline] | 0 |  |  |  |
| CC1(c2ccc(F)cc2)Cc2ccccc2C(c2cnc3ccccc3c2)=N1 (stereo not shown) [Compound No. 1-502, 3-[3-methyl-3-(4-fluorophenyl)-3,4-dihydroisoquinolin-1-yl]quinoline] | 0 |  |  |  |
| CC1(C)N=C(c2cnc3ccccc3c2)c2ccccc2C1(C)C [Compound No. 1-865, 3-(3,3,4,4-tetramethyl-3,4-dihydroisoquinolin-1-yl)quinoline] |  |  | ≥ 80% |  |
| CC1(C)N=C(c2cnc3ccccc3c2)c2cccc(F)c2C1(C)C [Compound No. 1-866, 3-(5-fluoro-3,3,4,4-tetramethyl-3,4-dihydroisoquinolin-1-yl)quinoline] | 0 | ≥ 80% | ≥ 80% |  |
| CC1(C)N=C(c2cnc3c(F)cccc3c2)c2cccc(F)c2C1(C)C [Compound No. 1-918, 8-fluoro-3-(5-fluoro-3,3,4,4-tetramethyl-3,4-dihydroisoquinolin-1-yl)quinoline] | 0 |  |  |  |
| Cc1cccc2cc(C3=NC(C)(C)C(C)(C)c4c(F)cccc43)cnc12 [Compound No. 1-919, 3-(5-fluoro-3,3,4,4-tetramethyl-3,4-dihydroisoquinolin-1-yl)-8-methylquinoline] | 0 |  |  |  |
| CC1(C)N=C(c2cnc3ccccc3c2)c2ccccc2C1(F)F [Compound No. 1-929, 3-(4,4-difluoro-3,3-dimethyl-3,4-dihydroisoquinolin-1-yl)quinoline] | 0 | ≥ 80% | ≥ 80% |  |
| CC1(C)N=C(c2cnc3ccccc3c2)c2cccc(F)c2C1(F)F [Compound No. 1-930, 3-(4,4,5-trifluoro-3,3-dimethyl-3,4-dihydroisoquinolin-1-yl)quinoline] | 0 | ≥ 80% | ≥ 80% |  |
| CC1(C)c2ccccc2C2(c3cnc4ccccc4c3)ON2C1(C)C (stereo not shown) [Compound No. 2-91, 3,3,4,4-tetramethyl-8b-quinolin-3-yl-4,8b-dihydro-3H-oxazireno[3,2-a]isoquino line] |  |  |  | 0 |
| CC1(C)c2c(F)cccc2C2(c3cnc4ccccc4c3)ON2C1(C)C (stereo not shown) [Compound No. 2-100, 5-fluoro-3,3,4,4-tetramethyl-8b-quinolin-3-yl-4,8b-dihydro-3H-oxazireno[3,2-a]isoquinoline] |  | ≥ 80% | ≥ 80% |  |
| CC1(C)N2OC2(c2cnc3ccccc3c2)c2ccccc2C1(F)F (stereo not shown) [Compound No. 2-134, 4,4-difluoro-3,3-dimethyl-8b-quinolin-3-yl-4,8b-dihydro-3H-oxazireno[3,2-a]isoquinoline] |  | ≥ 80% |  |  |
| CC1(C)N2OC2(c2cnc3ccccc3c2)c2cccc(F)c2C1(F)F (stereo not shown) [Compound No. 2-135, 4,4,5-trifluoro-3,3-dimethyl-8b-quinolin-3-yl-4,8b-dihydro-3H-oxazireno[3,2-a]isoquinoline] |  | ≥ 80% |  |  |
| CC1(C)c2c(F)cccc2C(c2cnc3ccccc3c2)=[N+]([O-])C1(C)C [Compound No. 3-100, 3-(5-fluoro-3,3,4,4-tetramethyl-2-oxido-3,4-dihydroisoquinolin-1-yl)quinoline] | 0 | ≥ 80% | ≥ 80% |  |
| CC1(C)c2cc(F)ccc2C(c2cnc3ccccc3c2)=[N+]([O-])C1(C)C [Compound No. 3-109, 3-(6-fluoro-3,3,4,4-tetramethyl-2-oxido-3,4-dihydroisoquinolin-1-yl)quinoline] | 0 |  |  |  |
| CC1(C)[N+]([O-])=C(c2cnc3ccccc3c2)c2ccccc2C1(F)F [Compound No. 3-134, 3-(4,4-difluoro-3,3-dimethyl-2-oxido-3,4-dihydroisoquinolin-1-yl)quinoline] | 0 | ≥ 80% | ≥ 80% |  |
| CC1(C)[N+]([O-])=C(c2cnc3ccccc3c2)c2cccc(F)c2C1(F)F [Compound No. 3-135, 3-(4,4,5-trifluoro-3,3-dimethyl-2-oxido-3,4-dihydroisoquinolin-1-yl)quinoline] | 0 | ≥ 80% | ≥ 80% |  |
